In US20130197032A1, “[…] COMPOUNDS FOR THE TREATMENT OF NEUROLOGICAL AND […] DISORDERS” (A. CARLSSON RESEARCH AB, priority 2010, published 2013):

What was measured:
habituated rats = experiment: Locomotion in habituated rats, photocell activity boxes; conditions: 5-35 minutes after injection; for locomotion in habituated rats: 6.25, 12.5, 50, 100, 200 and 400 μmol/kg sc, vs Control; for locomotion, accumulated unrepeated beam breaks, means±SEM of pooled groups: habituated rats, 50 μmol/kg sc, 30 minutes period, controls 23±6
Procedure: Rats were housed in a normal daylight cycle and the experiments were carried out during daytime. […] During the following 5 minutes test drugs were injected, after which the rats were returned to the boxes for another 60 minutes. Five by five rows of photocell beams at floor level allowed a computer based-system to register horizontal activity. Motor activity is presented as accumulated number of unrepeated beam breaks, i.e. several consecutive breakings of one beam is counted as one beam break. The software was set to register behavior from the rats' first introduction into the arena until it was finally removed from the box, i.e. for 110 or 130 minutes.
Locomotion was measured as accumulated unrepeated beam breaks. […] This was followed by 60 minutes of registration. Data are calculated from a 30 minutes period, 5-35 minutes after injection, and plotted as means and SEM. […] Data were calculated from a 30 minutes period, 5-35 minutes after injection.
The effect of haloperidol on the locomotor stimulation was also studied in habituated rats (see FIG. 10). Locomotion was measured as accumulated unrepeated beam breaks. Rats were given haloperidol (0.05, 0.2, 0.5 mg/kg, sc) and were then allowed to habituate for 65 minutes. […] Data are calculated from a 30 minutes period, taken 5-35 minutes after injection, and plotted as means and SEM. N=4-5.

[1] = Sonesson's thesis 1995; cited from earlier work
[2] = target: human norepinephrine transporter (NET) (Homo sapiens, UniProt P23975); experiment: Equilibrium radioligand binding to NET; conditions: displacement of 3H-Imipramine
Procedure: (§1) Cells were not centrifuged following cell scraping, but were collected directly into the ice-cold nitrogen cavitation chamber.
(§2) Membranes were prepared as described above. […] Binding reactions were terminated by filtration through UniFilter-96GF/B filters (from Perkin-Elmer, presoaked with 0.1% polyethylenimine for 1 h) with a Brandel 96-well harvester. Filters were washed with ice-cold wash buffer (50 mM Tris, 120 mM NaCl, pH7.4; 500 ml/plate) and then allowed to air-dry for 30 min. 50 μl MacrosScint-20 scintillation cocktail was added to each well, the plates were sealed, and then counted on a Top-Count (Packard).

human alpha2A receptor = target: T1, human alpha2A receptor (Homo sapiens, UniProt P08913); experiment: R-SAT assay α2A; format: cell-based; conditions: Table 3, α2A; percent response of reference UK 14,306
T1 construct: expressed in transfected cells; host or cells: NIH/3T3 cells, transient transfection, pSI vector

human 5-HT2A receptors = human 5-HT2A receptors (Homo sapiens, UniProt P28223); experiment: Phosphatidyl inositol (PI) hydrolysis assay at 5-HT2A; format: cell-based; design: expressed in transfected cells; conditions: mean ± SEM; for EC50: negative logarithm of EC50 in molar (M), HEK 293T cells, read-out: PI Hydrolysis pEC50 (converted); for PI Hydrolysis Eff (%): percent response of reference ligand 5-HT
Procedure: (§3) After lysing the cells with 50 μl of 0.1M formic acid, 20 μl each cell lysate was mixed with 80 μl (1 mg) RNA Binding YSi-SPA beads (GE Healthcare, Chalfont St. Giles, UK) on PICO plates (PerkinElmer) and counted on a TopCount (Packard).
Each curve is representative of at least three or more independent experiments.

human alpha1A receptor = target: T2, human alpha1A receptor (Homo sapiens, UniProt P35348); experiment: R-SAT assay α1A; format: cell-based; conditions: Table 3, α1A; percent response of reference Phenylephrine
T2 construct: expressed in transfected cells; host or cells: NIH/3T3 cells, transient transfection, pSI vector
T2 sequence (P35348 1-466): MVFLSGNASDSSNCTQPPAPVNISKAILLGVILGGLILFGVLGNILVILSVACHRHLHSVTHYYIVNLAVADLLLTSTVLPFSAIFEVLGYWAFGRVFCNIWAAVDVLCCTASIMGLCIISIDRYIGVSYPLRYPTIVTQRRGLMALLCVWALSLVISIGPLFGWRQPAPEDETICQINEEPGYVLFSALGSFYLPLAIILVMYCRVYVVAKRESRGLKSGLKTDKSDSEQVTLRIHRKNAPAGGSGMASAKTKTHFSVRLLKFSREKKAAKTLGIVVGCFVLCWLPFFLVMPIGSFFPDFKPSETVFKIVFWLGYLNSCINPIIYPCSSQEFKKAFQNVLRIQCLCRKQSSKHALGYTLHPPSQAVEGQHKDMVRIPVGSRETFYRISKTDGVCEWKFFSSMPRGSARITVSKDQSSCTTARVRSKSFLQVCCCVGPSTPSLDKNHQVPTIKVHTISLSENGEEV

5-HT2B receptors [3] = target: T3, 5-HT2B receptors (Homo sapiens, UniProt P41595); experiment: R-SAT assay 5-HT2B; format: cell-based; design: expressed in transfected cells; host or cells: NIH/3T3; conditions: Table 3, 5-HT2B; for EC50: negative logarithm of EC50 in molar, read-out: pEC50 (converted); for Eff (%): percent response of reference 5-CT
human 5-HT1B receptor = human 5-HT1B receptor (Homo sapiens, UniProt P28222); experiment: R-SAT assay 5-HT1B; format: cell-based; conditions: Table 3, 5-HT1B; for Eff (%): percent response of reference 5-CT
active rats = experiment: Motor activity in active rats, video tracking; format: in vivo; conditions: 30, 60, 120 μmol/kg sc 30 minutes prior to recording
Procedure: Motor activity experiments in both active and habituated rats were performed on male Sprague-Dawley rats (Charles River, Germany) weighing 280-320 g. Prior to testing, rats were housed in groups of four or five in ventilated Macrolon type IV cages for approximately one week.
The rats were housed in reverse daylight cycle and all handling of the animals was performed in dim light. Test drugs were administered s.c. 30 minutes prior to registration of behavior. Single rats were introduced into rectangular arenas (l/w/h: 150×100×40 cm) illuminated indirectly by one infrared (IR) lamp (Neocom, South Korea). The rats' movements were recorded to digital (MPEG2) video files using an IR sensitive video camera (Panasonic WV-CPR480, lens: Panasonic LA-408C3) connected to a PC equipped with a MPEG-encoder (MVR1000SX, Canopus Co.).
Suspected outliers were evaluated one at the time with Grubbs' test for outliers (Grubbs F E (1969) Procedures for detecting outlying observations in samples. Technometrics 11(1):1-21).
The third series of experiments was performed in drug naive rats (FIG. 8). Rats were injected sc with saline (C, 0.9%) or either test drug 30 minutes prior to video recording. […] Behavior was registered under infrared light in rectangular arenas (150×100×40 cm) by video tracking. Motor activity is shown as velocity. Shown are means and SEM.

[4] = target: human serotonin transporter (SERT) (Homo sapiens, UniProt P31645); conditions: displacement of 3H-Imipramine
Procedure: as §1, §2

[5] = target: human dopamine transporter (DAT) (Homo sapiens, UniProt Q01959); experiment: Equilibrium radioligand binding to DAT; conditions: displacement of 125I-RTI-55
Procedure: as §1, §2

human D1 receptor = target: T4, human D1 receptor (Homo sapiens, UniProt P21728); experiment: R-SAT assay D1; format: cell-based; conditions: Table 3, D1; percent response of reference SKF 38393
T4 construct: expressed in transfected cells; host or cells: NIH-3T3 (inferred: R-SAT host; D1 is in neither method list of b200)

[6] = target: human D4 (variant 4.2) receptor (Homo sapiens, UniProt P21917, DEL265-296); format: cell-based
human 5-HT7 receptor = target: T5, human 5-HT7 receptor (Homo sapiens, UniProt P34969); experiment: R-SAT assay 5-HT7; format: cell-based; conditions: Table 3, 5-HT7; percent response of reference 5-CT
T5 construct: expressed in transfected cells; host or cells: NIH/3T3

[7] = clinical observation; cited from earlier work
D2 receptors = D2 receptors (Homo sapiens, UniProt P14416); experiment: BRET2 functional antagonism of dopamine at D2 (Schild analysis); format: cell-based; design: expressed in transfected cells; host or cells: HEK-293T
Procedure: BRET-2 signals were measured using the multiplate reader Mithras 940LB (Berthold Technologies, Bad Wildbad, Germany) and were calculated as the ratio between the Renilla luciferase emission and the GFP2 emission corrected by the background emissions of non-transfected cells.
A Schild plot (B) was constructed using the EC50 values derived from the curves in (A). The Schild plot was fitted using linear regression in GraphPad Prizm.

human 5-HT6 receptor = human 5-HT6 receptor (Homo sapiens, UniProt P50406); experiment: R-SAT assay 5-HT6; format: cell-based; conditions: Table 3, 5-HT6
5-HT2B receptors [8] = target: T3, 5-HT2B receptors; experiment: PI hydrolysis assay on 5-HT2B receptors
Procedure: as §3

[9] = negative logarithm of EC50 in molar, read-out: pEC50 (converted)

T3 sequence (P41595 whole entry): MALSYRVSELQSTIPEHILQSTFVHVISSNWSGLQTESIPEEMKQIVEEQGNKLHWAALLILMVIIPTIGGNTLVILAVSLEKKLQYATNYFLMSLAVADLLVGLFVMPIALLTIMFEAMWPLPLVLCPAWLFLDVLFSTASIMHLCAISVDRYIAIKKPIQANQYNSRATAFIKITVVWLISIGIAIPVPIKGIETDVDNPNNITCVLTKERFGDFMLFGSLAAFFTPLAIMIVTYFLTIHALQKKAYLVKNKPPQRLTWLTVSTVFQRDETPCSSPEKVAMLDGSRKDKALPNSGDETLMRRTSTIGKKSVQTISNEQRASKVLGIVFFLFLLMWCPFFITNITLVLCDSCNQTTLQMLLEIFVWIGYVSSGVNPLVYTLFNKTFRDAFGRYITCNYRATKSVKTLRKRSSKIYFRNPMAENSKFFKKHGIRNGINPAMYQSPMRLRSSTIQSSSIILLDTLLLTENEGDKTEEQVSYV
human 5-HT1B receptor, sequence (P28222 whole entry): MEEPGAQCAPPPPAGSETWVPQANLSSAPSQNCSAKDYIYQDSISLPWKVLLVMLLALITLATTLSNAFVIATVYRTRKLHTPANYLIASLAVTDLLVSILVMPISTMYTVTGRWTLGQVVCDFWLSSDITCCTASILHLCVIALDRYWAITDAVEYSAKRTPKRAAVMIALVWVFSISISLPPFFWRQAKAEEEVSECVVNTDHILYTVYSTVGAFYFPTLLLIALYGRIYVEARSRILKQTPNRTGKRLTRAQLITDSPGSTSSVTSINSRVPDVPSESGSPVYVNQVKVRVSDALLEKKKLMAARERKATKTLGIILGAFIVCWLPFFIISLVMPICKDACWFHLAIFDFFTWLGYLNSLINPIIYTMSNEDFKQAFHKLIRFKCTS
human 5-HT2A receptors, sequence (P28223 whole entry): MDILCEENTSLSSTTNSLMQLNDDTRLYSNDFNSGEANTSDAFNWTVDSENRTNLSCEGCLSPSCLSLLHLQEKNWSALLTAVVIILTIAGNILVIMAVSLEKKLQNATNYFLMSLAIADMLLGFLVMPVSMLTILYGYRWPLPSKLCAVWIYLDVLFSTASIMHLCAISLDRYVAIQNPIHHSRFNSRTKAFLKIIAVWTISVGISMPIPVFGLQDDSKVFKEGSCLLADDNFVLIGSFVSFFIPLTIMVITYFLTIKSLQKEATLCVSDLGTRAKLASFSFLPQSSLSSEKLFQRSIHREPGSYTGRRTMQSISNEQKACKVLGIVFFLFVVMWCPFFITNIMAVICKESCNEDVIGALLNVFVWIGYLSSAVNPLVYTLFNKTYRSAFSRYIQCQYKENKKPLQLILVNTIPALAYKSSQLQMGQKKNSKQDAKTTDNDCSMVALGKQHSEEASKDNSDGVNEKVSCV
human norepinephrine transporter (NET), sequence (P23975 whole entry): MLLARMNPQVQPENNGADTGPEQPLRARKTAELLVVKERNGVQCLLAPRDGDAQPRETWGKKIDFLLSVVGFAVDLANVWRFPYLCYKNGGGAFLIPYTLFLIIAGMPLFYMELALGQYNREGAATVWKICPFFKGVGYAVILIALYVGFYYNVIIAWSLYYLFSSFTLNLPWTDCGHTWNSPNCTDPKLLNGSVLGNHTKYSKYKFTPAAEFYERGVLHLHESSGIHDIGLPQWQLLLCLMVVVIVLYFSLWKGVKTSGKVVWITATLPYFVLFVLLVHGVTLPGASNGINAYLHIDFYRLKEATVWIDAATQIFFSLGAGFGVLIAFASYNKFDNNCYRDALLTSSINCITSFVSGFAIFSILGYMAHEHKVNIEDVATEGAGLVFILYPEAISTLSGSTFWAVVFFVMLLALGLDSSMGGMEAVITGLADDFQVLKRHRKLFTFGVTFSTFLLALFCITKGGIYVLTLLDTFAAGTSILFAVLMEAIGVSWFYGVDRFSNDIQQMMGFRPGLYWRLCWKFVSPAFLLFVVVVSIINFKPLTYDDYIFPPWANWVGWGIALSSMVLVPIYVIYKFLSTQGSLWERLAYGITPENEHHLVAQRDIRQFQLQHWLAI
T1 sequence (P08913 whole entry): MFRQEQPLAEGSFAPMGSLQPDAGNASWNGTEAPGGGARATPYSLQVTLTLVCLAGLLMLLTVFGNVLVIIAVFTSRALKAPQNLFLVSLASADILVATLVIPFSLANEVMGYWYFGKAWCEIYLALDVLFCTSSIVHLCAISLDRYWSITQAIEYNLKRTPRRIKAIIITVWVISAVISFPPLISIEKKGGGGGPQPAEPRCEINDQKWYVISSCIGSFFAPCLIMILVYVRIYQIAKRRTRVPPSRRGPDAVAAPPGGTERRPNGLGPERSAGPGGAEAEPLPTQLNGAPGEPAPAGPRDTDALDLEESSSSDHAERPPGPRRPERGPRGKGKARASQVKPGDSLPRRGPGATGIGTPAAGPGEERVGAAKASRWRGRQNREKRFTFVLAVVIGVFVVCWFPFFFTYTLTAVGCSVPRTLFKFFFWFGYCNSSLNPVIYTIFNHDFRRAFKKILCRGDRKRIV
human serotonin transporter (SERT), sequence (P31645 whole entry): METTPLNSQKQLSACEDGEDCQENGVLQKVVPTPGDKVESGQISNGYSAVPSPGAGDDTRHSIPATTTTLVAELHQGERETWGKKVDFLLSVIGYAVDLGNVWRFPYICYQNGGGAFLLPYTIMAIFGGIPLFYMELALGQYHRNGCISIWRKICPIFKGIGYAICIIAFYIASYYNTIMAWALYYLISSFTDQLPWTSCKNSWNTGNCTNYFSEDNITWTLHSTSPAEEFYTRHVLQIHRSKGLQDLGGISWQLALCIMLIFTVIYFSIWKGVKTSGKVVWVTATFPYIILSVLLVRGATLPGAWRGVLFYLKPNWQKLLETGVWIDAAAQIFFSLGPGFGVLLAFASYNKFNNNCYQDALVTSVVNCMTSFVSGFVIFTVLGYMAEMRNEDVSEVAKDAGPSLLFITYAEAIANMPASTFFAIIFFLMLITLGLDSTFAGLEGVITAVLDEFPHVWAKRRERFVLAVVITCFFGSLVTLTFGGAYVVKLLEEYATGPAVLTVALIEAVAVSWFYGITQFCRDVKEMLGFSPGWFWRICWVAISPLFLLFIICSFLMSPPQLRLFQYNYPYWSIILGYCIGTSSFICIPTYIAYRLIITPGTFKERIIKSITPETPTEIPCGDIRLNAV
human 5-HT6 receptor, sequence (P50406 whole entry): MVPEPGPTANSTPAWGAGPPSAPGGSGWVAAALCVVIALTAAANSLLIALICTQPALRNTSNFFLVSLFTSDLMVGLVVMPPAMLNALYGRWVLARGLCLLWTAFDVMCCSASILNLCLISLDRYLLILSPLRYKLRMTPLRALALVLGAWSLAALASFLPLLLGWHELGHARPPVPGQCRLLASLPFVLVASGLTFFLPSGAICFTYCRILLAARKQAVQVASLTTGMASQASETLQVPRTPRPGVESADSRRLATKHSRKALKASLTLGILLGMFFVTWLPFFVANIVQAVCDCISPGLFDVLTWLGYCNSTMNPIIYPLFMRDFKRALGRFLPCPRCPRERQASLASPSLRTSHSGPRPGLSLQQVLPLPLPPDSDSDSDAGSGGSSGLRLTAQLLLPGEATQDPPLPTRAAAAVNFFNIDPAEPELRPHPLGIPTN
D2 receptors, sequence (P14416 1-414 isoform P14416-2): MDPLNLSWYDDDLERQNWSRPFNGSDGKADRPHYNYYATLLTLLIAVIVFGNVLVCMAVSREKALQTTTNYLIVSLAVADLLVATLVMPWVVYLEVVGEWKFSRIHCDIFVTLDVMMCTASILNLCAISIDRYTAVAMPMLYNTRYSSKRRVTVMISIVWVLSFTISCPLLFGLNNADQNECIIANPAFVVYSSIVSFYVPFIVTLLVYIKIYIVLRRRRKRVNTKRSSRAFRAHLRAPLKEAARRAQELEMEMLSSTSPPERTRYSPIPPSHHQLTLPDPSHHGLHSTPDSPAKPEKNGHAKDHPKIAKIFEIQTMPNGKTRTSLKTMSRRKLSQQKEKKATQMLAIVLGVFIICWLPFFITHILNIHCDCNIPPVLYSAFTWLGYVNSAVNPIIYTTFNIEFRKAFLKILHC
human dopamine transporter (DAT), sequence (Q01959 whole entry): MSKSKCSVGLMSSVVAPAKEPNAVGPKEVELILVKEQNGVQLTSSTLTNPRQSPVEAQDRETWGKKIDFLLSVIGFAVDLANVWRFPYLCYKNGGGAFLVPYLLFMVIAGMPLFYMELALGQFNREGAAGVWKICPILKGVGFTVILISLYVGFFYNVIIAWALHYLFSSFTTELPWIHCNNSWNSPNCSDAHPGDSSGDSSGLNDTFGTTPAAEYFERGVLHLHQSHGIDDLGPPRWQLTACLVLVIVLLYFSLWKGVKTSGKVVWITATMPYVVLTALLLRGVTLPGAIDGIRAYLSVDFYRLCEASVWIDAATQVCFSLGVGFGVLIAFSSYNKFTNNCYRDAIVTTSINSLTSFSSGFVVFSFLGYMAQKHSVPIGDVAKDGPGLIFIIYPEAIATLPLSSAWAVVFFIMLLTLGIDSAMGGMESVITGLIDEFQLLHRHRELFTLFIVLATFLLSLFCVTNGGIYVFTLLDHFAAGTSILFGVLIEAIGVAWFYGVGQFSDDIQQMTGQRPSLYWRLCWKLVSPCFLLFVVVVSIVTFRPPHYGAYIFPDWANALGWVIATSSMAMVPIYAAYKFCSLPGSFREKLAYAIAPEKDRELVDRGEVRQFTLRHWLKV
T4 sequence (P21728 whole entry): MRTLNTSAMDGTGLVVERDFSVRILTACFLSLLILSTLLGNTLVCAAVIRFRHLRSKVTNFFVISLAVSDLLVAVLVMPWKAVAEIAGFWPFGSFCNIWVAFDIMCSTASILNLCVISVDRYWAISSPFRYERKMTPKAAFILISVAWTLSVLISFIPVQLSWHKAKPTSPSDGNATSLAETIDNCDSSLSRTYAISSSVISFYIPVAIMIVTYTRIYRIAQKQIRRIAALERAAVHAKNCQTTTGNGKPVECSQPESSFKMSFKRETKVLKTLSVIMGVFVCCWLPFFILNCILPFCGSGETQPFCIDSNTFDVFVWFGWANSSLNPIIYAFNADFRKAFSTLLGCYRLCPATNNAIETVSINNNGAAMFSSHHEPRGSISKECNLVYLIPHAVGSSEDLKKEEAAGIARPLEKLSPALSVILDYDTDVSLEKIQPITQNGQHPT

In the case of `CCCN1CCC[C@H](c2cccc(S(C)(=O)=O)c2)C1` [(+)-OSU6162, (3R)-3-[3-(methylsulfonyl)phenyl]-1-propylpiperidine], the “locomotion in habituated rats” value (habituated rats) is listed as “significant locomotor stimulation was observed for all doses but the two lowest”, the “locomotion, accumulated unrepeated beam breaks, means±SEM of pooled groups” value (habituated rats) is listed as 95±12 unrepeated beam breaks and the “change in behavioral activity” value [1] is listed as “not to induce any change in behavioral activity”. The Inh % [2] was 14%, the “Eff (%)” value (human alpha2A receptor) was 5% and the EC50 (human 5-HT2A receptors) was 2e-06 M. For the same molecule, the “PI Hydrolysis Eff (%)” value (human 5-HT2A receptors) was 82 ± 4%, the “Eff (%)” value (human alpha1A receptor) was 22% and the EC50 (5-HT2B receptors [3]) was 5010 nM. For the same molecule, the “Eff (%)” value (5-HT2B receptors [3]) was 111%, the “Eff (%)” value (human 5-HT1B receptor) was 20% and the “motor activity (velocity) in active rats” value (active rats) was “decreased motor activity in active rats”. For the same molecule, the Inh % [4] was 38% and the Inh % [5] was 5%.

For `CCCN1CCC[C@@H](c2cccc(S(C)(=O)=O)c2)C1` [(−)-OSU6162, (3S)-3-[3-(methylsulfonyl)phenyl]-1-propylpiperidine], the “Eff (%)” value (human D1 receptor) was 11%, the “locomotion in habituated rats” value (habituated rats) was “significant locomotor stimulation was observed for all doses but the lowest” and the “locomotion, accumulated unrepeated beam breaks, means±SEM of pooled groups” value (habituated rats) was 129±11 unrepeated beam breaks. For the same molecule, the Inh % [2] was 11%, the “Eff (%)” value [6] was 40% and the “Eff (%)” value (human 5-HT7 receptor) was 7%. The hallucinogenic activity [7] was “no hallucinogenic activity”, the “Eff (%)” value (human alpha2A receptor) was 2% and the “slope of the Schild analysis” value (D2 receptors; functional antagonism of dopamine in BRET2 assays) was “nearly unity”. The Kb (D2 receptors; read-out: pKb from the Schild analysis (converted)) was 1260 nM, the EC50 (human 5-HT2A receptors) was 1.26e-06 M and the “PI Hydrolysis Eff (%)” value (human 5-HT2A receptors) was 65 ± 4%. For the same molecule, the “Eff (%)” value (human alpha1A receptor) was 15%, the EC50 (human 5-HT6 receptor; [9]) was over 10000 nM and the “Eff (%)” value (human 5-HT6 receptor; percent response of reference 5-CT) was 52%. For the same molecule, the EC50 (5-HT2B receptors [3]) was 631 nM, the “Eff (%)” value (5-HT2B receptors [3]) was 75% and the EC50 (human 5-HT1B receptor; [9]) was 2510 nM. The “Eff (%)” value (human 5-HT1B receptor) was 75%, the “motor activity (velocity) in active rats” value (active rats) was “decreased motor activity in active rats” and the Inh % [4] was 26%. For the same molecule, the EC50 (5-HT2B receptors [8]) was 631 nM, the “efficacy in PI hydrolysis assays on 5-HT2B receptors” value (5-HT2B receptors [8]; data not shown) was 24% and the Inh % [5] was 6%.
